{"source": "patent US20260098030A1", "about": "“NEGATIVE ALLOSTERIC MODULATORS OF METABOTROPIC GLUTAMATE RECEPTOR 2” (Vanderbilt University, priority 2022, published 2026)", "note": "pIC50: −log10 of the molar value.", "data": [{"target": "T1, rat mGlu2 (Rattus norvegicus, UniProt P31421)", "T1 construct": "expressed in transfected cells; host or cells: HEK-293 cells stably co-expressing GIRK channels", "T1 sequence (P31421 19-872)": "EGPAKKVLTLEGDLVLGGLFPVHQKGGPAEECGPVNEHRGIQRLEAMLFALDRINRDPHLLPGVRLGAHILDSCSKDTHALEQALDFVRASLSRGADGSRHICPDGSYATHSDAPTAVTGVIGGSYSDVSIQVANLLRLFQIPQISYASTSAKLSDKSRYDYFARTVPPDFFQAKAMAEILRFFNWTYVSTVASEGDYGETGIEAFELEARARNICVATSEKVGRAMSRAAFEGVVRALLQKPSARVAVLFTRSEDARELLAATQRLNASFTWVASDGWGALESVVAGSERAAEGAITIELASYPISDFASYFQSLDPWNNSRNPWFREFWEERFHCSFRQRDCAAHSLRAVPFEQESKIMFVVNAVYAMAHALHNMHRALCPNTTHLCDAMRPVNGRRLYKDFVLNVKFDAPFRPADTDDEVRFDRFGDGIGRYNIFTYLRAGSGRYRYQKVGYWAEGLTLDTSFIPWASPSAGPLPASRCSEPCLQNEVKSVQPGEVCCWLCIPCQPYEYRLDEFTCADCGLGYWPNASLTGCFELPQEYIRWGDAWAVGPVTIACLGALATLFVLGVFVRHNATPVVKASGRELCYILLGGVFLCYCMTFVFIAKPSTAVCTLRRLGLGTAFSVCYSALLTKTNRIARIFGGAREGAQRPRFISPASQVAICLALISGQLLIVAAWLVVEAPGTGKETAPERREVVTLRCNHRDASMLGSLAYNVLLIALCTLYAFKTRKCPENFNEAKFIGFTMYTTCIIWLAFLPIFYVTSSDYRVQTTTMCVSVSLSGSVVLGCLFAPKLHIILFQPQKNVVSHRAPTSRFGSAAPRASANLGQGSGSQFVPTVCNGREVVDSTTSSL", "test": "mGlu GIRK cell-based thallium flux assay, rat mGlu2", "settings": "HEK-293 cells co-expressing rat mGlu2 and GIRK, EC80 glutamate", "experimental": "Human embryonic kidney (HEK-293) cell lines stably co-expressing human or rat mGlu2 and G protein-coupled inwardly rectifying potassium (GIRK) channels, or human mGlu3 and GIRK, were used for in vitro evaluation of compound activity in thallium flux assay using a fluorescent thallium indicator dye.\nThe day before the assay, GIRK cells co-expressing human mGlu3, human or rat mGlu2, as described above, were plated in black-walled, clear-bottomed, amine-coated 384-well plates at a density of 15,000 cells/20 μL/well in the assay medium (glutamine-depleted basal DMEM supplemented with 10% dialyzed FBS, 20 mM HEPES, 1 mM sodium pyruvate). Cells were incubated at 37° C. in the presence of 5% CO2. The next day, assay buffer (Hanks balanced salt solution, 20 mM HEPES, 4.16 mM sodium bicarbonate, pH 7.2) was prepared to dilute compounds and Thallos AM fluorescent dye solution. The 2× Thallos dye solution (final concentration 0.34 μM to the cells) was prepared by mixing the dye stock (2.97 mM in DMSO) to 1:1 with 10% pluronic acid before adding to the assay buffer. Cells were washed with assay buffer using a microplate washer to remove the medium, resulting in 20 μL of buffer remaining in each well. Immediately, 20 μL of 2× Thallos dye solution was added to cells, and incubated for one hour at 25° C. During the cell dye loading incubation period, a 10-point concentration serial dilution of compound was created from a 10 mM DMSO compound stock by performing a 1:3 serial dilution in DMSO using the Bravo liquid handler. The 2× compound plate was generated by transferring 0.24 μL of the diluted compound in each well to a daughter plate using an Echo acoustic liquid handler. This is further diluted in 40 μL assay buffer, resulting in a range from 30 μM to 1.5 nM final concentration in the assay. The agonist plate (5×) was prepared to include EC80 glutamate concentration (a concentration to elicit 80% of a maximally effective glutamate concentration) in thallium buffer (125 mM […], 1 mM magnesium sulfate, 1.8 mM calcium sulfate, 5 mM glucose, 10 mM HEPES, pH 7.2, 12.5 mM thallium sulfate).\nAfter dye-loading, cell plates were washed with assay buffer to remove excess extracellular dye using a microplate washer, resulting in 20 μL of buffer remaining in each well. After a ten-minute equilibration period, cell, compound and agonist plates were loaded into a Hamamatsu μCell kinetic imaging plate reader equipped with liquid handler to monitor fluorescence changes at 480 nm excitation and 540 nm emission settings. Briefly, after collection of baseline fluorescence, 20 μL of compound was added and incubated for two minutes and twenty seconds. This is immediately followed by adding 10 μL of glutamate-thallium buffer to the wells containing compound. The fluorescent signal was monitored an additional 2.5 minutes after the glutamate addition. Multiple reference wells containing no compound received either no glutamate (for a baseline reference), EC80 glutamate, or ECmax glutamate (for normalization to maximum response). Fluorescence was measured throughout the experiment at a frequency of 1 measurement per every 2 seconds before the glutamate addition and a frequency of 1 measurement per every 1 second after the glutamate addition. Each compound concentration series occurred one time in each plate, and replicates from two or three plates were used in each experimental run. Thallium solutions were handled and disposed of according to guidelines from the Vanderbilt University Chemical Safety department.\nData were normalized using a static ratio function (F/F0) by dividing every fluorescent measurement by the initial fluorescent value for the corresponding well. The increase in signal resulting from the glutamate/thallium addition of the second add was measured by determining the slope from 3 seconds to 13 seconds after the addition. […]", "values": [{"smiles": "O=C1NCc2cc(-c3ccc(C4CC4)nc3)c(-c3ccc(F)cc3)cc21", "note": "[Compound 26, 5-(6-cyclopropylpyridin-3-yl)-6-(4-fluorophenyl)isoindolin-1-one]", "pIC50": "< 5.00"}, {"smiles": "O=C1NCc2cc(-c3ccc4ncccc4c3)c(-c3ccc(F)cc3)cc21", "note": "[Compound 19, 6-(4-fluorophenyl)-5-(quinolin-6-yl)isoindolin-1-one]", "pIC50": 5.37}, {"smiles": "CN(C)c1ncccc1-c1cc2c(cc1-c1ccc(F)cc1)C(=O)NC2", "note": "[Compound 39, 5-(2-(dimethylamino)pyridin-3-yl)-6-(4-fluorophenyl)isoindolin-1-one]", "pIC50": "< 5.00"}, {"smiles": "Cc1nc(F)ccc1-c1cc2c(cc1-c1ccc(F)cc1)C(=O)NC2", "note": "[Compound 30, 5-(6-fluoro-2-methylpyridin-3-yl)-6-(4-fluorophenyl)isoindolin-1-one]", "pIC50": "< 5.00"}, {"smiles": "O=C1NCc2cc(-c3ccc(F)nc3F)c(-c3ccc(F)cc3)cc21", "note": "[Compound 32, 5-(2,6-difluoropyridin-3-yl)-6-(4-fluorophenyl)isoindolin-1-one]", "pIC50": "< 5.00"}, {"smiles": "O=C1NCc2cc(-c3cccnc3C(F)(F)F)c(-c3ccc(F)cc3F)cc21", "note": "[Compound 110, 6-(2,4-difluorophenyl)-5-(2-(trifluoromethyl)pyridin-3-yl)isoindolin-1-one]", "pIC50": "< 5.00"}, {"smiles": "O=C1NCc2cc(-c3cnc(C(F)(F)F)nc3)c(-c3ccc(F)cc3F)cc21", "note": "[Compound 86, 6-(2,4-difluorophenyl)-5-(2-(trifluoromethyl)pyrimidin-5-yl)isoindolin-1-one]", "pIC50": "< 5.00"}, {"smiles": "O=C1NCc2cc(-c3ccc(C4CC4)nc3)c(-c3ccc(F)cc3F)cc21", "note": "[Compound 70, 5-(6-cyclopropylpyridin-3-yl)-6-(2,4-difluorophenyl)isoindolin-1-one]", "pIC50": 5.70}, {"smiles": "N#Cc1cccc(-n2cc(-c3cc4c(cc3-c3ccc(F)cc3F)C(=O)NC4)cn2)c1", "note": "[Compound 99, 3-(4-(6-(2,4-difluorophenyl)-1-oxoisoindolin-5-yl)-1H-pyrazol-1-yl)benzonitrile]", "pIC50": "< 5.00"}, {"smiles": "O=C1NCc2cc(-c3cccnc3)c(-c3ccc(F)cc3)cc21", "note": "[Compound 44, 6-(4-fluorophenyl)-5-(pyridin-3-yl)isoindolin-1-one]", "pIC50": "< 5.00"}, {"smiles": "O=C1NCc2cc(C3CCCCC3)c(-c3ccc(F)cc3)cc21", "note": "[Compound 63, 5-cyclohexyl-6-(4-fluorophenyl)isoindolin-1-one]", "pIC50": 5.58}, {"smiles": "O=C1NCc2cc(-c3ccc4scnc4c3)c(-c3ccc(F)cc3F)cc21", "note": "[Compound 23, 5-(benzo[d]thiazol-5-yl)-6-(2,4-difluorophenyl)isoindolin-1-one]", "pIC50": 5.67}, {"smiles": "N#Cc1cc(F)cc(-c2cc3c(cc2-c2ccc(F)cc2F)C(=O)NC3)c1", "note": "[Compound 106, 3-(6-(2,4-difluorophenyl)-1-oxoisoindolin-5-yl)-5-fluorobenzonitrile]", "pIC50": 5.85}, {"smiles": "O=C1NCc2cc(-c3ccc4scnc4c3)c(-c3ccc(F)cc3)cc21", "note": "[Compound 13, 5-(benzo[d]thiazol-5-yl)-6-(4-fluorophenyl)isoindolin-1-one]", "pIC50": 6.79}, {"smiles": "Cc1ccc(-c2cc3c(cc2-c2ccc(F)cc2)C(=O)NC3)c(C)n1", "note": "[Compound 29, 5-(2,6-dimethylpyridin-3-yl)-6-(4-fluorophenyl)isoindolin-1-one]", "pIC50": 5.44}, {"smiles": "Cc1ccc(-c2cc3c(cc2-c2ccc(F)cc2)C(=O)NC3)cn1", "note": "[Compound 6, 6-(4-fluorophenyl)-5-(6-methylpyridin-3-yl)isoindolin-1-one]", "pIC50": 5.61}, {"smiles": "O=C1NCc2cc(C3=CCOCC3)c(-c3ccc(F)cc3)cc21", "note": "[Compound 55, 5-(3,6-dihydro-2H-pyran-4-yl)-6-(4-fluorophenyl)isoindolin-1-one]", "pIC50": "< 5.00"}, {"smiles": "N#Cc1cc(-c2cc3c(cc2-c2ccc(F)cc2F)C(=O)NC3)ccc1F", "note": "[Compound 93, 5-(6-(2,4-difluorophenyl)-1-oxoisoindolin-5-yl)-2-fluorobenzonitrile]", "pIC50": 5.82}, {"smiles": "O=C1NCc2cc(-c3ccc4ccncc4c3)c(-c3ccc(F)cc3)cc21", "note": "[Compound 15, 6-(4-fluorophenyl)-5-(isoquinolin-7-yl)isoindolin-1-one]", "pIC50": 5.39}]}]}
